The values below come from publication PMC9739398, “Substrate Specificity of GSDA Revealed by Cocrystal Structures and Binding Studies” (International Journal of Molecular Sciences, 2022).

In assay [1] the target is T1, AtGSDA (Arabidopsis thaliana, UniProt Q94BU8).
T1 construct: gene GSDA; SF form, Ser29-Tyr185, N-terminal 6xHis tag (pET-28a), recombinant, homodimer, zinc enzyme; full-length in pET-21b also made
The assay is described as follows: crystal structure; thermal shift. As to conditions: active site, described as competitive inhibitor. It is filed as binding.

Assay [2] deals with T2, AtGSDA (Arabidopsis thaliana, UniProt Q94BU8, Y185F).
T2 construct: gene GSDA; SF form, Ser29-Tyr185, N-terminal 6xHis tag (pET-28a), recombinant, homodimer, zinc enzyme; full-length in pET-21b also made
T2 sequence (Q94BU8 29-185 Y185F): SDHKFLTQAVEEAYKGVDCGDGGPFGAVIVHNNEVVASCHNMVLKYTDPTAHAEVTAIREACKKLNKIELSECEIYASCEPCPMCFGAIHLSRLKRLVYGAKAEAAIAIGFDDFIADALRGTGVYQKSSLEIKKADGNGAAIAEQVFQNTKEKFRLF
Description: crystal structure; thermal shift. The class given is binding. Conditions: one ligand per dimer, substrate form.

In assay [3] the target is T3, AtGSDA (Arabidopsis thaliana, UniProt Q94BU8, Y185E).
T3 construct: gene GSDA; SF form, Ser29-Tyr185, N-terminal 6xHis tag (pET-28a), recombinant, homodimer, zinc enzyme; full-length in pET-21b also made
T3 sequence (Q94BU8 29-185 Y185E): as the sequence (Q94BU8 29-185 Y185F) above, with F157E counted along it
Description: thermal shift. It is filed as binding.

The target of assay [4] is T4, AtGSDA (Arabidopsis thaliana, UniProt Q94BU8, Y185K).
T4 construct: gene GSDA; SF form, Ser29-Tyr185, N-terminal 6xHis tag (pET-28a), recombinant, homodimer, zinc enzyme; full-length in pET-21b also made
T4 sequence (Q94BU8 29-185 Y185K): as the sequence (Q94BU8 29-185 Y185F) above, with F157K counted along it
Description: thermal shift. The class given is binding.

The target in assay [5] is T5, AtGSDA (Arabidopsis thaliana, UniProt Q94BU8, E82Q).
T5 construct: gene GSDA; SF form, Ser29-Tyr185, N-terminal 6xHis tag (pET-28a), recombinant, homodimer, zinc enzyme; full-length in pET-21b also made
T5 sequence (Q94BU8 29-185 E82Q): as the sequence (Q94BU8 29-185 Y185F) above, with E54Q, F157Y counted along it
The assay is described as follows: thermal shift. The class given is binding. As to conditions: catalytically impaired.

The target of assay [6] is T1, AtGSDA. Description: thermal shift (dye); crystal structure (product formed from soaked guanosine). The class given is binding. Conditions: printed as nearly 2; zinc enzyme; active site.
Assay [7] has as its target T2, AtGSDA. Description: thermal shift. The class given is binding.
The target in assay [8] is T1, AtGSDA. The assay is described as follows: thermal shift; deamination by mass spectrometry. The class given is biochemical. As to conditions: weak substrate; crystal soak reached product stage.
Another assay has as its target T6, GDA (Escherichia coli, UniProt P76641).
T6 construct: gene guaD; recombinant, purified as in a cited protocol
T6 sequence (P76641 1-439): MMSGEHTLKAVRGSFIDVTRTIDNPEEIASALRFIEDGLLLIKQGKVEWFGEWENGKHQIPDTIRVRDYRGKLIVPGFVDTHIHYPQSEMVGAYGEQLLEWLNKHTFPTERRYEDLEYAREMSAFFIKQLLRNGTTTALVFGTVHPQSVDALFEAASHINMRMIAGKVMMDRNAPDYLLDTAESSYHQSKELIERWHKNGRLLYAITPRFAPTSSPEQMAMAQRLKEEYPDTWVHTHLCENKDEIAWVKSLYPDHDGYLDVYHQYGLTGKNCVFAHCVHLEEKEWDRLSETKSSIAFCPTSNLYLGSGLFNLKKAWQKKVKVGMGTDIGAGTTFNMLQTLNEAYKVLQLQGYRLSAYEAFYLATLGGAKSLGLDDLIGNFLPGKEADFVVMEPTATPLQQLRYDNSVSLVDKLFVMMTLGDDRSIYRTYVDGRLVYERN
The assay is described as follows: deamination by mass spectrometry; thermal shift. The class given is biochemical. Conditions: enzyme:substrate 1:100; 50 mM sodium bicarbonate, neutral.

In assay [9] the target is T1, AtGSDA. Description: thermal shift (dye); deamination by mass spectrometry. It is filed as biochemical. As to conditions: printed as nearly 2; turned over to 2'-O-methylxanthosine.

T1 sequence (Q94BU8 29-185): as the sequence (Q94BU8 29-185 Y185F) above, with F157Y counted along it

Take `Nc1ncnc2c1ncn2[C@@H]1O[C@H](CO)[C@@H](O)[C@H]1O` [compound 3, adenosine]: on AtGSDA [1], the ΔTm result is “The ligand adenosine (Ado) maintained its interactions with Ala81 and Asn69 via N6”.
As for `Nc1nc2c(ncn2[C@@H]2O[C@H](CO)[C@@H](O)[C@H]2O)c(=O)[nH]1` [guanosine], the ΔTm result was “the Y185F-Gua structure indicated that only one Gua molecule was bound” on AtGSDA [2]; “WT and Y185F/E showed similar binding affinities toward the ligands” at AtGSDA [3]; “the Y185K and E82Q mutants showed differentially reduced affinities” at AtGSDA [4]; “the Y185K and E82Q mutants showed differentially reduced affinities” on AtGSDA [5].
`O=c1[nH]c(=O)c2ncn([C@@H]3O[C@H](CO)[C@@H](O)[C@H]3O)c2[nH]1` [xanthosine]: the ΔTm was ~ 2 °C on AtGSDA [6]; “WT and Y185F/E showed similar binding affinities toward the ligands” at AtGSDA [3]; “WT and Y185F/E showed similar binding affinities toward the ligands” on AtGSDA [7].
With `Nc1nc(=O)[nH]c2c1ncn2[C@@H]1O[C@H](CO)[C@@H](O)[C@H]1O` [compound 5, isoguanosine], the ΔTm entry on AtGSDA [1] (2-keto group ligates zinc) was “its binding mode was similar to that of Xan (Figure 3c, PDB 7DM6)”.
Take `CNc1nc2c(ncn2[C@@H]2O[C@H](CO)[C@@H](O)[C@H]2O)c(=O)[nH]1` [compound 2, N^2-methylguanosine]: the ΔTm result at AtGSDA [8] was “the inhibitors Ado/isoG or the weak substrate N^2-mG normally lacked one or two functional groups”.
Turning to `Nc1nc2[nH]cnc2c(=O)[nH]1` [guanine], at GDA, the ΔTm entry is “GDA showed excellent deamination capability by converting almost all of the guanine substrate”.
Take `CO[C@@H]1[C@H](O)[C@@H](CO)O[C@H]1n1cnc2c(=O)[nH]c(N)nc21` [compound 1, 2′-O-methylguanosine]: the ΔTm on AtGSDA [9] was ~ 2 °C.
Take `O=c1[nH]cnc2c1ncn2[C@@H]1O[C@H](CO)[C@@H](O)[C@H]1O` [compound 4, inosine]: the ΔTm result on AtGSDA [1] was “The binding position was almost unchanged when compared to Gua bound by AtGSDA”.
